Experimental data from the supplement of paper PMC10307832.

Assays:
Test in all cases: relative viability (nuclei count vs DMSO), 5 days (fraction); higher = more cells survive
[1] = compound: C1CC(C1)(C(=O)O)C(=O)O.[NH2-].[NH2-].[Pt+2] [Carboplatin] + Cc1cc(Nc2cc(N3CCN(C)CC3)nc(Sc3ccc(NC(=O)C4CC4)cc3)n2)n[nH]1 [Tozasertib] (partner 0.1 µM)
How it was run: (§1)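 After 5 days of treatment, lung cancer cells in 1536-well plates were fixed and stained in a single step (final 0.05% Triton X-100, 1% formaldehyde, 1 ug/ml Hoechst) and their nuclei counted on 4× images. Treatment had been applied by pin tool the day after seeding as one drug alone or as a fixed anchor-drug dose with five library-drug doses (not always all listed) in √10 steps. Relative viability is the nuclei count of treated wells divided by that of vehicle wells, and values are medians of duplicate plates.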

[2] = compound: C1CC(C1)(C(=O)O)C(=O)O.[NH2-].[NH2-].[Pt+2] [Carboplatin] + COc1cc2c(Oc3ccc(NC(=O)C4(C(=O)Nc5ccc(F)cc5)CC4)cc3F)ccnc2cc1OCCCN1CCOCC1 [Foretinib] (partner 0.25 µM)
How it was run: as §1

[3] = compound: C1CC(C1)(C(=O)O)C(=O)O.[NH2-].[NH2-].[Pt+2] [Carboplatin] + CC(=O)Nc1cccc(-n2c(=O)n(C3CC3)c(=O)c3c(Nc4ccc(I)cc4F)n(C)c(=O)c(C)c32)c1 [Trametinib] (partner 0.02 µM)
How it was run: as §1

[4] = compound: NS(=O)(=O)OC[C@@H]1C[C@@H](n2ccc3c(N[C@H]4CCc5ccccc54)ncnc32)C[C@@H]1O [MLN4924] + COc1cc2c(Oc3ccc(NC(=O)C4(C(=O)Nc5ccc(F)cc5)CC4)cc3F)ccnc2cc1OCCCN1CCOCC1 [Foretinib] (partner 0.25 µM)
How it was run: as §1

Cell Line | relative viability ([1]; first compound 0.08 µM) | relative viability ([1]; first compound 0.253 µM) | relative viability ([1]; first compound 0.8 µM) | relative viability ([1]; first compound 2.53 µM) | relative viability ([1]; first compound 8 µM) | relative viability ([2]; first compound 0.08 µM) | relative viability ([2]; first compound 0.253 µM) | relative viability ([2]; first compound 0.8 µM) | relative viability ([2]; first compound 2.53 µM) | relative viability ([2]; first compound 8 µM) | relative viability ([3]; first compound 0.08 µM) | relative viability ([3]; first compound 0.253 µM) | relative viability ([3]; first compound 0.8 µM) | relative viability ([3]; first compound 2.53 µM) | relative viability ([3]; first compound 8 µM) | relative viability ([4]; first compound 0.04 µM) | relative viability ([4]; first compound 0.1265 µM) | relative viability ([4]; first compound 0.4 µM) | relative viability ([4]; first compound 1.265 µM) | relative viability ([4]; first compound 4 µM)
NCI-H727 | 0.572 | 0.653 | 0.54 | 0.562 | 0.624 | 1.1 | 0.967 | 0.9 | 0.792 | 0.637 | 0.391 | 0.4 | 0.349 | 0.376 | 0.392 | 0.863 | 0.737 | 0.515 | 0.285 | 0.335
NCI-H1734 | 0.289 | 0.295 | 0.31 | 0.242 | 0.26 | 0.777 | 0.877 | 0.827 | 0.954 | 0.812 | 0.69 | 0.718 | 0.659 | 0.637 | 0.501 | 0.938 | 0.866 | 0.241 | 0.145 | 0.134
EMC-BAC-2 | 0.313 | 0.292 | 0.275 | 0.266 | 0.326 | 1.07 | 1.06 | 1.02 | 1.03 | 0.898 | 0.899 | 0.825 | 0.924 | 0.832 | 0.686 | 0.959 | 0.593 | 0.248 | 0.224 | 0.282
EKVX | 0.439 | 0.371 | – | 0.381 | 0.38 | 0.903 | 0.893 | – | 0.749 | 0.747 | 0.324 | 0.342 | 0.332 | 0.359 | 0.327 | 0.718 | 0.748 | 0.59 | 0.135 | 0.155
NCI-H596 | 0.985 | 0.98 | 0.907 | 0.77 | 0.491 | 0.828 | 1.01 | 0.707 | 0.59 | 0.431 | 0.846 | 0.845 | 0.722 | 0.645 | 0.518 | 0.847 | 1.04 | – | 0.65 | 0.58
NCI-H358 | 0.113 | 0.101 | 0.107 | 0.108 | 0.114 | 0.736 | 0.783 | 0.721 | 0.764 | 0.651 | 0.145 | 0.148 | 0.121 | 0.16 | 0.14 | 0.781 | 0.694 | 0.397 | 0.0949 | 0.094
LOU-NH91 | 0.727 | 0.807 | 0.671 | 0.63 | 0.637 | 0.991 | 0.998 | 0.955 | 0.921 | 0.922 | 0.786 | 0.792 | 0.763 | 0.803 | 0.775 | 0.945 | 0.952 | 0.896 | 0.539 | 0.413
NCI-H1437 | 0.386 | 0.43 | 0.403 | 0.4 | 0.401 | 1.28 | 1.34 | 1.22 | 1.2 | 1.08 | 0.487 | 0.518 | 0.452 | 0.463 | 0.5 | 0.835 | 1.15 | 0.739 | 0.465 | 0.22
H3255 | 0.829 | 0.603 | 0.577 | 0.52 | 0.525 | 0.905 | 0.872 | 0.875 | 0.898 | 0.836 | 0.699 | 0.83 | 0.754 | 0.588 | 0.474 | 0.799 | 0.746 | 0.34 | 0.285 | 0.278
NCI-H1666 | 0.597 | 0.683 | 0.599 | 0.534 | 0.526 | 0.977 | 0.918 | 0.823 | 0.832 | 0.607 | 0.914 | 0.848 | 0.85 | 0.813 | 0.787 | 1.02 | 0.696 | 0.541 | 0.304 | 0.346
NCI-H2228 | 0.276 | 0.252 | 0.246 | 0.225 | 0.209 | 0.907 | 0.831 | 0.626 | 0.845 | 0.532 | 0.678 | 0.575 | 0.616 | 0.543 | 0.344 | 1.07 | 0.69 | 0.512 | 0.302 | 0.147
HCC-78 | 0.413 | 0.335 | 0.431 | 0.483 | 0.465 | 0.616 | 0.555 | 0.54 | 0.526 | 0.545 | 0.828 | 0.587 | 0.653 | 0.674 | 0.73 | 0.583 | 0.653 | 0.84 | 0.247 | 0.194
CAL-12T | 0.338 | 0.289 | 0.329 | 0.413 | 0.382 | 1.1 | 1.06 | 1.2 | 1.02 | 1.07 | 0.385 | 0.352 | 0.299 | 0.33 | 0.365 | 1.01 | 1.03 | 0.463 | 0.422 | 0.181
SK-LU-1 | 0.366 | 0.293 | 0.341 | 0.346 | 0.275 | 0.867 | 0.878 | 0.815 | 0.749 | 0.543 | 0.584 | 0.525 | 0.485 | 0.441 | 0.356 | 0.924 | 0.615 | 0.26 | 0.14 | 0.174
LU99A | 0.282 | 0.279 | 0.248 | 0.258 | 0.212 | 0.794 | 0.749 | 0.752 | 0.713 | 0.522 | 0.602 | 0.634 | 0.537 | 0.55 | 0.418 | 0.531 | 0.365 | 0.314 | 0.188 | 0.236
RERF-LC-KJ | 0.553 | 0.471 | 0.483 | 0.406 | 0.386 | 0.933 | 0.874 | 0.956 | 0.772 | 0.713 | 0.863 | 0.876 | 0.785 | 0.696 | 0.53 | 0.745 | 0.482 | 0.247 | 0.202 | 0.216
